These results are taken from patent US20060029623A1, “Invert emulsions comprising at least one active agent sensitive to water and cosmetic/dermatological applications thereof” (GALDERMA RESEARCH & DEVELOPMENT, S.N.C., priority 2003, published 2006).

Molecules are shown by their SMILES.

The data set in a line: Maximum solubility of the vitamin D derivative in various excipients (excess active, stirring 12 h, filtration, HPLC assay). The class given is physicochemical. The method, then:
In the table below are the solubility results for (4E,6E)-7-[3-(3,4-bishydroxymethylbenzyloxy)phenyl]-3-ethylnona4,6-dien-3-ol, a vitamin D analogue, in various excipients:
These maximum solubilities of (4E,6E)-7-[3-(3,4-bishydroxymethylbenzyloxy)phenyl]-3-ethylnona-4,6-dien-3-ol, a vitamin D analogue, were measured after stirring for 12 h with a magnetic stirrer bar, at room temperature, with an excess of active ingredient in the excipient to be analyzed. The suspension is then filtered (1.2 μm) and then the filtrate is assayed by HPLC.

Regarding `CC/C(=C\C=C\C(O)(CC)CC)c1cccc(OCc2ccc(CO)c(CO)c2)c1` [Compound 1, (4E,6E)-7-[3-(3,4-bishydroxymethyl-benzyloxy)phenyl]-3-ethylnona-4,6-dien-3-ol], the “Solubility, Concentration in % (w/w)” value reads like this: (in Cetiol SN, room temperature) <0.1 % (w/w); (in Crodamol IPP, room temperature) 0.2 % (w/w); (in Ethanol Rectapur, room temperature) 23.3 % (w/w); (in Eutanol G, room temperature) 0.5 % (w/w); (in Glycerine, room temperature) <0.05 % (w/w); (in Marcol 172, room temperature) <0.05 % (w/w). Also, the “Solubility, Concentration in % (w/w)” value is 0.4 % (w/w) (in Miglyol 812, room temperature); 17.8 % (w/w) (in PEG 400, room temperature); <0.05 % (w/w) (in Primol 352, room temperature); 6.7 % (w/w) (in Propylene glycol, room temperature); <0.05 % (w/w) (in Silicone DC 200, room temperature); 0.3 % (w/w) (in Tegosoft TN, room temperature). Also, the “Solubility, Concentration in % (w/w)” value (in Transcutol, room temperature) is listed as 27.0 % (w/w); the “Solubility, Concentration in % (w/w)” value (solution pH 4, room temperature) is recorded as <0.05 % (w/w); the “Solubility, Concentration in % (w/w)” value (solution pH 7, room temperature) is on record as <0.05 % (w/w).
